In patent US20090208979A1, “Method for identifying antipsychotic drug candidates” (priority 2008, published 2009):
Read-outs that look alike come from different tables or passages of the source.

Legend:
PKC [1] = tested on: PKC
PKC [2] = tested on: PKC; remark: listed apart in the source
GAD67 mRNA = type: in vivo, rat; conditions: rats, 14 days daily IP (haloperidol 1 mg/kg, fluvoxamine 10 mg/kg, clozapine 10 mg/kg); frontal cortex; vs control
PKCβ2 [3] = type: in vivo, rat; conditions: rats, chronic 14 days IP; frontal cortex; vs control
[4] = rats; haloperidol 1 mg/kg and fluvoxamine 10 mg/kg IP; cited from earlier work
ERK2 = conditions: whole cell lysates, normalized to total ERK2, vs control; for reduction of ERK2 phosphorylation: acute treatment, 15 minutes; for increase of ERK2 phosphorylation: chronic treatment, 7 days
GAD67 = type: cell-based, rat; conditions: whole cell lysates, vs control
PKCβ2 [5] = type: cell-based, rat
[6] = tested on: negative symptoms of schizophrenia; conditions: add-on to antipsychotic treatment; clinical studies; cited from earlier work
PKCβ2 [7] = conditions: rat, in vivo, ip
[8] = rats, 14 days daily IP (haloperidol 1 mg/kg, fluvoxamine 10 mg/kg, clozapine 10 mg/kg), frontal cortex, vs control
[9] = rats, chronic 14 days IP, frontal cortex, vs control
[10] = chronic treatment, 7 days, whole cell lysates, vs control

O=C(CCCN1CCC(O)(c2ccc(Cl)cc2)CC1)c1ccc(F)cc1 [haloperidol]
PKCγ mRNA level (PKCγ mRNA; [8]): significantly increased
increase of PKC phosphorylation level (PKC [1]; 15 minutes treatment (FIG. 11A), whole cell lysates, normalized to β-actin, vs control): 134%
increase of PKC phosphorylation in the membranal fraction (PKC [2]; [9]): 45%
increase of PKC phosphorylation in whole lysate (PKC [2]; [9]): 38%
GAD67 mRNA level (GAD67 mRNA): significantly increased
PKCβ mRNA level (PKCβ mRNA; [8]): significantly increased
PKCβ2 protein level, whole tissue lysate (PKCβ2 [3]): significantly increased
brain and serum concentrations when coadministered compared with given individually [4]: not significantly changed
reduction of ERK2 phosphorylation (ERK2): did not alter
increase of ERK2 phosphorylation (ERK2): did not alter
decrease of GAD67 protein level (GAD67; acute treatment, 15 minutes): did not affect
decrease of GAD67 protein level (GAD67; chronic treatment, 7 days): did not affect
increase of PKCβ2 protein level (PKCβ2 [5]; [10]): 106%

CNCCCC12CCC(c3ccccc31)c1ccccc12 [maprotiline]
effect on negative symptoms of schizophrenia [6]: did not improve negative symptoms

CN1CCN(C2=Nc3cc(Cl)ccc3Nc3ccccc32)CC1 [clozapine]
reduction of ERK2 phosphorylation (ERK2): 67%
increase of ERK2 phosphorylation (ERK2): 87%
decrease of GAD67 protein level (GAD67; acute treatment, 15 minutes): 25%
decrease of GAD67 protein level (GAD67; chronic treatment, 7 days): 73%
decrease of PKCβ2 protein level (PKCβ2 [5]; acute treatment, 15 minutes, whole cell lysates, vs control): 31%
decrease of PKCβ2 protein level (PKCβ2 [5]; [10]): 60%

COCCCC/C(=N\OCCN)c1ccc(C(F)(F)F)cc1 [fluvoxamine]
PKCγ mRNA level (PKCγ mRNA; rat, in vivo): increased significantly
increase of PKC phosphorylation level (PKC [1]): 156%
increase of PKC phosphorylation in the membranal fraction (PKC [2]; rat, in vivo, ip): 50%
increase of PKC phosphorylation in whole lysate (PKC [2]; rat, in vivo, ip): 40%
PKCβ mRNA level (PKCβ mRNA; rat, in vivo): increased significantly
decrease of GAD67 protein level (GAD67; chronic treatment, 7 days): 60%
increase of PKCβ2 protein level (PKCβ2 [5]): did not affect
PKCβ2 level, cytosolic compartment (PKCβ2 [7]): reduced level
